The target of assay [1] is T1, SOS1 catalytic domain (residues 564-1049) (Homo sapiens, UniProt Q07889).
T1 sequence (Q07889 564-1049): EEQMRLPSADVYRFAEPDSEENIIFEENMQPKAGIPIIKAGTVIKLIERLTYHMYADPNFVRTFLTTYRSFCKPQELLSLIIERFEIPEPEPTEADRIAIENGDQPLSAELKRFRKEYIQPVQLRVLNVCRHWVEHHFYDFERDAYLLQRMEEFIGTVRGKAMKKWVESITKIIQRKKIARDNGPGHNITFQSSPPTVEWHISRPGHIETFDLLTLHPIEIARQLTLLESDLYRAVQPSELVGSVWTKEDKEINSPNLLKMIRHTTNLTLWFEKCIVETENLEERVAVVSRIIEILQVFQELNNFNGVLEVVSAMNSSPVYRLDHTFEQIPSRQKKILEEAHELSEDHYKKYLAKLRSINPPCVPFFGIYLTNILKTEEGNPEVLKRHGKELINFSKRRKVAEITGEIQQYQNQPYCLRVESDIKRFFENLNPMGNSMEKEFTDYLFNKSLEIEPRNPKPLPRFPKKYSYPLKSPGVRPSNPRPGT
Put plainly: Mode of Action Assay: inhibition of SOS1 nucleotide exchange activity (SOS1 TR-FRET IC50 Assay). Background: Time-resolved FRET reads energy transfer from a long-lived donor to a nearby acceptor.

Assay [2] concerns PC-9 cells (EGFR Ex19Del). Nature of the assay: Potency Assay: pERK (SOS1 pERK IC50 Assay, AlphaLISA SureFire Ultra p-ERK1/2). Format: cell-based. To be noted: Homo sapiens, read-out: SOS1 pERK IC50. In short, it runs like this: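 PC-9 (EGFR Ex19Del) cells plated overnight, then treated 1 h at 37° C. with 10-point 3-fold dilutions (top 10 μM final) in duplicate. Lysate pERK1/2 measured by AlphaLISA SureFire Ultra; IC50 from 4-parameter sigmoidal fit.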
Background: In Alpha technology, singlet oxygen from a donor bead excites a nearby acceptor bead.

Assay [3] concerns the target T1, SOS1 catalytic domain (residues 564-1049). Put plainly: Potency Assay: binding affinity to SOS1 using Surface Plasmon Resonance (SPR). Also on record: SOS1 catalytic domain (residues 564-1049) immobilized on a sensor chip. To be noted: immobilized SOS1 catalytic domain (residues 564-1049), read-out: SOS1 SPR Equilibrium Kd. In short, it runs like this:
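Avi-tagged SOS1 catalytic domain captured on streptavidin chip (~6000 RU) in 0.01 M HEPES, 0.15 M NaCl, 0.05% P20. Compound dilution series flowed at 50 μL/min for association, then buffer for dissociation, with double reference subtraction. Kd derived from end-of-association binding response plotted against concentration.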

[4] abbreviates: PC-9 cells (EGFR Ex19Del), 1 hour incubation, AlphaLISA p-ERK1/2.

Molecules are shown by their SMILES. Where two headings read alike, the source gives them in different places.

Broadly, the IC50 is the concentration at which inhibition is half-maximal. As a reminder, the Kd is the constant that tells how readily two partners part at equilibrium. `C[C@@H](Nc1nc(Cl)nc2c1CN(C(=O)N1CCN(C)C(C(F)(F)F)C1)C2)c1cccc(C(F)F)c1F` (stereo partly drawn) [Example 418]: the IC50 in assay [1] and in assay [2] (setting [4]) was < 1000 nM each time. Also, the Kd in assay [3] was < 400 nM.

For the molecule `C[C@@H](Nc1nc(Cl)nc2c1CN(C(=O)N1CCOCC1)C2)c1cccc(C(F)F)c1F` [Example 537], the IC50 in assay [1] and in assay [2] (setting [4]) was < 1000 nM each time. In assay [3], the Kd is < 400 nM.

Turning to `C[C@@H](Nc1nc(Cl)nc2c1CN(C(=O)N1CCOC(c3ccncc3)C1)C2)c1cc(N)cc(C(F)(F)F)c1` (stereo partly drawn) [Example 145], the IC50 in assay [1] and in assay [2] (setting [4]) was < 1000 nM throughout. The Kd in assay [3] is < 400 nM.

Take `C[C@@H](Nc1nc(Cl)nc2c1CN(C(=O)N1CCOCC1)C2)c1cccc(C(C)(C)C#N)c1` [Example 482, 2-{3-[(1R)-1-{[2-chloro-6-(morpholine-4-carbonyl)-5H,6H,7H-pyrrolo[3,4-d]pyrimidin-4-yl]amino}ethyl]phenyl}-2-methylpropanenitrile]: the IC50 in assay [1] was < 1000 nM; in assay [2] (PC-9, 1 h), > 1000 nM. For the same molecule, the Kd in assay [3] was > 400 nM.

In the case of `CNC1(C(=O)N2Cc3nc(Cl)nc(N[C@H](C)c4cccc(C(F)F)c4F)c3C2)CCOCC1` [Example 333], the IC50 in assay [1] and in assay [2] (setting [4]) was < 1000 nM throughout. In assay [3], the Kd is < 400 nM.

For the molecule `Cc1nc2c(c(N[C@H](C)c3cc(N)cc(C(F)(F)F)c3)n1)CN(S(=O)(=O)N1CCOCC1)C2` [Example 37, (R)—N-(1-(3-amino-5-(trifluoromethyl)phenyl)ethyl)-2-methyl-6-(morpholinosulfonyl)-6,7-dihydro-5H-pyrrolo[3,4-d]pyrimidin-4-amine], the IC50 in assay [1] and in assay [2] (setting [4]) was < 1000 nM each time. The Kd in assay [3] was < 400 nM.

`C[C@@H](Nc1nc(Cl)nc2c1CN(S(=O)(=O)C1CCNCC1)CC2)c1cc(N)cc(C(F)(F)F)c1` [Example 450]: the IC50 in assay [1] and in assay [2] (setting [4]) was < 1000 nM throughout. In assay [3], the Kd is < 400 nM.

`C[C@@H](Nc1nc(Cl)nc2c1CN(C(=O)N1CCC3(CCN3)CC1)C2)c1cccc(C(F)F)c1F` [Example 390]: the IC50 in assay [1] and in assay [2] (setting [4]) was < 1000 nM throughout. The Kd in assay [3] is < 400 nM.

As to `C[C@@H](Nc1nc(Cl)nc2c1CN(C(=O)N1C[C@@H]3C[C@H]1CN3C)C2)c1cccc(C(F)F)c1F` [Example 412], the IC50 in assay [1] and in assay [2] (setting [4]) was < 1000 nM each time. In assay [3], the Kd was < 400 nM.

Regarding `CC1CNCCN1C(=O)N1Cc2nc(Cl)nc(N[C@H](C)c3cccc(C(F)F)c3F)c2C1` (stereo partly drawn) [Example 391], the IC50 in assay [1] and in assay [2] (setting [4]) was < 1000 nM in each case. The Kd in assay [3] was < 400 nM.

Regarding `C[C@@H](Nc1nc(Cl)nc2c1CN(C(=O)N1C3CC1CN(C1COC1)C3)C2)c1cccc(C(F)F)c1F` [Example 422], the IC50 in assay [1] and in assay [2] (setting [4]) was < 1000 nM each time. The Kd in assay [3] was < 400 nM.

Turning to `C[C@@H](Nc1nc(Cl)nc2c1CN(C(=O)C1(C#N)CCN(C)CC1)C2)c1cccc(C(F)F)c1F` [Example 299], the IC50 in assay [1] and in assay [2] (setting [4]) was < 1000 nM in each case. The Kd in assay [3] was < 400 nM.

Regarding `Cc1nc2c(c(N[C@H](C)c3cc(N)cc(C(F)(F)F)c3)n1)CN(S(=O)(=O)C1CCOCC1)C2` [Example 47, N-[(1R)-1-[3-amino-5-(trifluoromethyl)phenyl]ethyl]-2-methyl-6-tetrahydropyran-4-ylsulfonyl-5,7-dihydropyrrolo[3,4-d]pyrimidin-4-amine], the IC50 in assay [1] and in assay [2] (setting [4]) was < 1000 nM throughout. Moreover, in assay [3], the dissociation constant (Kd) was < 400 nM.

Take `COc1cccc(C(=O)N2Cc3nc(Cl)nc(N[C@H](C)c4cc(N)cc(C(F)(F)F)c4)c3C2)c1OC` [Example 107]: the IC50 in assay [1] and in assay [2] (setting [4]) was < 1000 nM throughout. In assay [3], the Kd was < 400 nM.

On to `C[C@@H](Nc1nc(Cl)nc2c1CN(C(=O)N1CCOCC1)C2)c1cccc(C(F)(F)F)c1` [Example 137, 2-chloro-6-(morpholine-4-carbonyl)-N-[(1R)-1-[3-(trifluoromethyl)phenyl]ethyl]-5H,6H,7H-pyrrolo[3,4-d]pyrimidin-4-amine], for which the IC50 in assay [1] and in assay [2] (setting [4]) was < 1000 nM throughout. Besides, the Kd in assay [3] was < 400 nM.

For `C[C@@H](Nc1nc(Cl)nc2c1CN(C(=O)C1(C#N)CCNCC1)C2)c1cccc(C(F)F)c1F` [Example 294], the IC50 in assay [1] and in assay [2] (setting [4]) was < 1000 nM in each case. Also, the Kd in assay [3] was < 400 nM.

For `C[C@@H](Nc1nc(Cl)nc2c1CN(S(=O)(=O)N1CCOCC1)CC2)c1cccc(C(F)(F)CO)c1` [Example 181], the IC50 in assay [1] and in assay [2] (setting [4]) was < 1000 nM in each case. In addition, the dissociation constant Kd in assay [3] was < 400 nM.

Turning to `C[C@@H](Nc1nc(Cl)nc2c1CN(C(=O)N1CC3CNCC(C1)O3)C2)c1cccc(C(F)F)c1F` [Example 398], the IC50 is < 1000 nM in assay [1] and > 1000 nM in assay [2] (setting [4]). Also, the Kd in assay [3] is < 400 nM.

As to `C[C@@H](Nc1nc(Cl)nc2c1C[C@@H](N1CCOCC1)CC2)c1cc(N)cc(C(F)(F)F)c1` (single isomer, unassigned) [Example 170], the IC50 in assay [1] and in assay [2] (setting [4]) was < 1000 nM throughout. In assay [3], the Kd was < 400 nM.

As to `COC1(C(=O)N2Cc3nc(Cl)nc(NC(C)c4cccc(C(F)(F)CO)c4F)c3C2)CCOCC1` (stereo not drawn) [Example 471, 2-[3-(1-{[2-chloro-6-(4-methoxyoxane-4-carbonyl)-5H,6H,7H-pyrrolo[3,4-d]pyrimidin-4-yl]amino}ethyl)-2-fluorophenyl]-2,2-difluoroethan-1-ol], the IC50 in assay [1] and in assay [2] (setting [4]) was < 1000 nM throughout. The dissociation constant (Kd) in assay [3] is < 400 nM.

`C[C@@H](Nc1nc(Cl)nc2c1CN(C(=O)N1CCNCC1)C2)c1cccc(C(F)(F)F)c1` [Example 364]: the IC50 in assay [1] and in assay [2] (setting [4]) was < 1000 nM each time. For the same molecule, in assay [3], the Kd is < 400 nM.

As to `C[C@@H](Nc1nc(Cl)nc2c1CN(C(=O)c1cccc3c1OCCN3)C2)c1cc(N)cc(C(F)(F)F)c1` [Example 77], the IC50 in assay [1] and in assay [2] (setting [4]) was < 1000 nM each time. Also, the Kd in assay [3] is > 400 nM.

On to `C[C@@H](Nc1nc(Cl)nc2c1CN(C(=O)C1CN(C3COC3)C1)C2)c1cccc(C(F)F)c1F` [Example 339], for which the IC50 in assay [1] and in assay [2] (setting [4]) was < 1000 nM in each case. Also, the Kd in assay [3] is < 400 nM.

On to `C[C@@H](Nc1nc(Cl)nc2c1CN(C(=O)c1ccc(OC(F)F)cn1)C2)c1cc(N)cc(C(F)(F)F)c1` [Example 61], for which the results for the half-maximal inhibitory concentration (IC50) in assay [1] and in assay [2] (setting [4]) were > 1000 nM and < 1000 nM, respectively. In assay [3], the Kd was < 400 nM.

For the molecule `C[C@@H](Nc1nc(OC(F)(F)F)nc2c1CN(C(=O)N1CCOCC1)C2)c1cc(N)cc(C(F)(F)F)c1` [Example 126, N-[(1R)-1-[3-amino-5-(trifluoro-methyl)phenyl]ethyl]-6-(morpholine-4-carbonyl)-2-(trifluoro-methoxy)-5H,6H,7H-pyrrolo-[3,4-d]pyrimidin-4-amine], the IC50 in assay [1] was > 1000 nM; in assay [2] (setting [4]), < 1000 nM. In addition, the Kd in assay [3] is > 400 nM.

With `C[C@@H](Nc1nc(Cl)nc2c1CN(C(=O)C1CNCCO1)C2)c1cccc(C(F)F)c1F` (stereo partly drawn) [Example 288], the 50% inhibitory concentration (IC50) in assay [1] and in assay [2] (setting [4]) was < 1000 nM in each case. Besides, in assay [3], the Kd is < 400 nM.

As for `C[C@@H](Nc1nc(Cl)nc2c1CN(C(=O)N1CCNc3ncccc31)C2)c1cc(N)cc(C(F)(F)F)c1` [Example 138], the IC50 in assay [1] and in assay [2] (setting [4]) was < 1000 nM in each case. Moreover, the Kd in assay [3] was < 400 nM.

As for `C[C@@H](Nc1nc(Cl)nc2c1CN(C(=O)N1CCNc3ncncc31)C2)c1cc(N)cc(C(F)(F)F)c1` [Example 354], the IC50 in assay [1] and in assay [2] (setting [4]) was < 1000 nM each time. Besides, in assay [3], the Kd was < 400 nM.

With `C[C@@H](Nc1nc(Cl)nc2c1CN(S(=O)(=O)CCO)CC2)c1cc(N)cc(C(F)(F)F)c1` [Example 457], the IC50 in assay [1] and in assay [2] (setting [4]) was < 1000 nM in each case. In assay [3], the dissociation constant (Kd) was < 400 nM.

With `Cc1nc2c(c(N[C@H](C)c3cc(N)cc(C(F)(F)F)c3)n1)CC(C(=O)N1CCOCC1)C2` (stereo partly drawn) [Example 45, [4-[[(1R)-1-[3-amino-5-(trifluoromethyl)phenyl]ethyl]amino]-2-methyl-6,7-dihydro-5H-cyclopenta[d]pyrimidin-6-yl]-morpholino-methanone], the IC50 in assay [1] and in assay [2] (setting [4]) was < 1000 nM throughout. The Kd in assay [3] was > 400 nM.

The values are drawn from patent publication US20230096028A1, “BICYCLIC HETEROCYCLYL COMPOUNDS AND USES THEREOF” (Revolution Medicines, Inc., priority 2019, published 2023).
